Laboratory results taken from patent US20060205826A1, “Method of using carotenoids in the prevention of cognitive decline and for other neuroprotection functions” (priority 2005, published 2006).
Entries after “also recorded” stand apart in the source; their conditions may differ.

Legend:
diabetic mouse brain = details: diabetic mice killed 20 days after streptozotocin administration; Saravia et al. 2004; cited from earlier work
diabetic rats = details: Lupien et al. (2003); cited from earlier work
GSH = GSH content in hippocampus homogenate of diabetic mice; type: in vivo; details: lutein 0.2 mg/kg p.o. or insulin 500 mU/g s.c. on days 4-13
Description: (§1) Male albino mice were used throughout the study, housed in a environmentally regulated room on a dark-light cycle of 12 hours with free access to food and water. Principles of laboratory animal care (NIH publication no. 85-23, revised 1985) were followed, as well as specific Spanish regulations. Animals were made diabetic with a single subcutaneous injection of 200 mg alloxan/kg body weight (66 mg/ml) in 0.1 M citrate buffer, pH 4.5, at day 0 of the experiment. Control mice were injected with the same volume of vehicle also at day 0 of the experiment.
Mice were identified as diabetic on the basis of blood glucose levels (higher than 16 mM at least 4 days after alloxan treatment). Animals were divided into subgroups as required by the experiment (control, control+lutein, diabetic, diabetic+lutein, diabetic+insulin, diabetic+insulin+lutein). Lutein was administered daily at a dose of 0.2 mg/kg p.o since day 4 after alloxan or citrate buffer injection until the end of the experiment. […] Glycated hemoglobin was determined in blood samples obtained by heart puncture immediately before killing the animals.
The GSH content of eye homogenate was quatitated by the method of Reed et al. (Reed et al., 1980). […] These products are quickly separated by HPLC which allows the quantification of nanomolars levels of GSH.

diabetic rodents = details: insulin treatment from the onset of diabetes, Biessels et al 1998; cited from earlier work
alloxan diabetic mice = assay: Electroretinogram (ERG) amplitude in diabetic mice; type: in vivo; details: lutein 100 mg/kg p.o. or insulin 500 mU/g s.c. on days 4-13
Description: Male albino mice were used throughout the study, housed in a environmentally regulated room on a dark-light cycle of 12 hours with free access to food and water. Principles of laboratory animal care (NIH publication no. 85-23, revised 1985) were followed, as well as specific Spanish regulations. Animals were made diabetic with a single subcutaneous injection of 200 mg alloxan/kg body weight (66 mg/ml) in 0.1 M citrate buffer, pH 4.5, at day 0 of the experiment. Control mice were injected with the same volume of vehicle also at day 0 of the experiment. Mice were identified as diabetic on the basis of blood glucose levels (higher than 16 mM at least 4 days after alloxan treatment). Animals were divided into subgroups as required by the experiment (control, control+lutein, diabetic, diabetic+lutein, diabetic+insulin, diabetic+insulin+lutein). […] Insulin treated animals were injected daily with 500 mU/g body weight since day 4 until the end of the experiment. Mice were killed by cervical dislocation on day 14, and hippocampus and retina were removed and homogenized in pre-chilled 0.2 M potassium phosphate buffer, pH 7.0. These homogenates were used to assay protein, GPx activity and MDA and GSH concentrations. […] Glycated hemoglobin was determined in blood samples obtained by heart puncture immediately before killing the animals.

GPx activity = GPx activity in eye and hippocampus homogenate of diabetic mice; type: in vivo
Description: Male albino mice were used throughout the study, housed in a environmentally regulated room on a dark-light cycle of 12 hours with free access to food and water. Principles of laboratory animal care (NIH publication no. 85-23, revised 1985) were followed, as well as specific Spanish regulations. Animals were made diabetic with a single subcutaneous injection of 200 mg alloxan/kg body weight (66 mg/ml) in 0.1 M citrate buffer, pH 4.5, at day 0 of the experiment. Control mice were injected with the same volume of vehicle also at day 0 of the experiment. Mice were identified as diabetic on the basis of blood glucose levels (higher than 16 mM at least 4 days after alloxan treatment). Animals were divided into subgroups as required by the experiment (control, control+lutein, diabetic, diabetic+lutein, diabetic+insulin, diabetic+insulin+lutein). […] Insulin treated animals were injected daily with 500 mU/g body weight since day 4 until the end of the experiment. Mice were killed by cervical dislocation on day 14, and hippocampus and retina were removed and homogenized in pre-chilled 0.2 M potassium phosphate buffer, pH 7.0. These homogenates were used to assay protein, GPx activity and MDA and GSH concentrations. Samples were kept frozen (−80° C.) until biochemical assays were performed. Blood was taken from the tail vein daily to assay blood glucose levels. Glycated hemoglobin was determined in blood samples obtained by heart puncture immediately before killing the animals. GPx activity was assayed as reported by Lawrence et al. (1978) towards hydrogen peroxide. The disappearance of NADPH was followed spectrophotometrically at 340 nm. The reaction mixture consisted of 240 mU/ml of glutathione disulfide reductase, 1 mM GSH, 0.15 mM NADPH in 0.1 M potassium phosphate buffer, pH 7.0, containing 1 mM EDTA and 1 mM sodium azide; 50 μl sample were added to this mixture and allowed to equilibrate at 37° C. for 3 min. reaction was started by the addition of 1.5 mM hydrogen peroxide to adjust the final volume of the assay mixture to 1 ml.

[1] = test system: MDA, a lipid peroxidation product; assay: MDA concentration by liquid chromatography in serum, eye and hippocampus of diabetic mice; type: in vivo
Description: as §1
Mice were identified as diabetic on the basis of blood glucose levels (higher than 16 mM at least 4 days after alloxan treatment). Animals were divided into subgroups as required by the experiment (control, control+lutein, diabetic, diabetic+lutein, diabetic+insulin, diabetic+insulin+lutein). […] Insulin treated animals were injected daily with 500 mU/g body weight since day 4 until the end of the experiment. Mice were killed by cervical dislocation on day 14, and hippocampus and retina were removed and homogenized in pre-chilled 0.2 M potassium phosphate buffer, pH 7.0. These homogenates were used to assay protein, GPx activity and MDA and GSH concentrations. Samples were kept frozen (−80° C.) until biochemical assays were performed. Blood was taken from the tail vein daily to assay blood glucose levels. Glycated hemoglobin was determined in blood samples obtained by heart puncture immediately before killing the animals.
MDA, a lipid peroxidation product, concentration was measured by liquid chromatography according to a modification of the method of Richard et al. (1992) as previously described (Romero et al., 1998). Briefly, 0.1 ml of sample (or standard solutions prepared daily from 1,1,3,3-tetramethoxypropane) and 0.75 ml of working solution (thiobarbituric acid 0.37% and perchloric acid 6.4%; 2/1, v/v) were mixed and heated to 95° C. for 1 h. After cooling (10 min in ice water bath), the flocculent precipitate was removed by centrifugation at 3,200×g for 10 min. The supernatant was neutralized and filtered (0.22 μm) prior to injection on an ODS column 5 μm column (250×4.6 mm). Mobile phase consisted in 50 mM phosphate buffer (pH 6.0): methanol (58:42, v/v). Isocratic separation was performed with 1.0 ml/min flow (HPLC System 325, Kontron) and detection at 532 nm (UV/VIS HPLC Detector 332, Kontron). Calibration curves were run daily.

[2] = lutein 100 mg/kg p.o. or insulin 500 mU/g body weight s.c. on days 4-13

C[C@]12CC[C@@H]3c4ccc(O)cc4CC[C@H]3[C@@H]1CC[C@@H]2O [17beta-oestradiol]
brain cell proliferation (diabetic mouse brain): restored

IGF-I
cognition-related performance in the water maze (diabetic rats): prevent loss of cognition-related performance

insulin [reference compound]
GSH content in hippocampus homogenate (GSH): restored
learning impairment in Morris water maze (diabetic rodents): can prevent this learning impairment
ERG amplitude (mostly b-wave) (alloxan diabetic mice): partially reversed
retinal GPx activity (GPx activity; eye homogenate without lens, lutein 100 mg/kg p.o. or insulin 500 mU/g s.c. on days 4-13): partially reversed
GPx activity in hippocampus homogenate (GPx activity; lutein 0.2 mg/kg p.o. or insulin 500 mU/g s.c. on days 4-13): restored
MDA levels in hippocampus ([1]; lutein 0.2 mg/kg p.o. or insulin 500 mU/g body weight s.c. on days 4-13): restored; also recorded: able to prevent this effect
MDA levels in ocular tissue [1, 2]: restored; also recorded: able to prevent this effect
MDA levels in serum [1, 2]: restored
